How the values were obtained:
Assay in all cases: fitness (endpoint OD595 vs no drug) (fraction); higher = more growth
B. subtilis 168 = test system: B. subtilis 168
Method in brief: (§1)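 Bacterial growth was followed in 384-well plates seeded at OD595 0.01, with 30 µl per well, or 55 µl for S. pneumoniae, in TSB, LB Lennox or CY at 37 °C. OD595 was read every 30 min for 14 h, and each reading had the first reading subtracted as background. Fitness is the background-corrected optical density at entry into stationary phase divided by the robust mean of the no-drug control wells. This ratio is capped at 1.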

S. aureus DSM 20231 = test system: S. aureus DSM 20231
Method in brief: as §1

S. aureus Newman = test system: S. aureus Newman
Method in brief: as §1

N[C@@H]1CONC1=O [Cycloserine D] + COc1ccc(C[C@H](N)C(=O)N[C@H]2[C@@H](O)[C@H](n3cnc4c(N(C)C)ncnc43)O[C@@H]2CO)cc1 [Puromycin]
fitness
Conditions	first compound 0.125 µg/mL	first compound 0.25 µg/mL	first compound 0.375 µg/mL	first compound 0.5 µg/mL	first compound 0.75 µg/mL	first compound 1.5 µg/mL
B. subtilis 168, partner 0.39 µg/mL	0.958	0.889	–	0.955	–	–
B. subtilis 168, partner 0.78 µg/mL	0.931	0.894	–	0.968	–	–
B. subtilis 168, partner 1.56 µg/mL	0.959	0.929	–	0.915	–	–
S. aureus DSM 20231, partner 0.39 µg/mL	–	–	≥ 1	–	≥ 1	≥ 1
S. aureus DSM 20231, partner 0.78 µg/mL	–	–	≥ 1	–	≥ 1	≥ 1
S. aureus DSM 20231, partner 1.56 µg/mL	–	–	1	–	≥ 1	≥ 1
S. aureus Newman, partner 0.39 µg/mL	–	–	≥ 1	–	≥ 1	≥ 1
S. aureus Newman, partner 0.78 µg/mL	–	–	0.999	–	0.977	0.989
S. aureus Newman, partner 1.56 µg/mL	–	–	≥ 1	–	0.998	≥ 1

fitness, S. aureus DSM 20231, one replicate
Conditions	first compound 0.375 µg/mL	first compound 0.75 µg/mL	first compound 1.5 µg/mL
partner 3.12 µg/mL	≥ 1	≥ 1	0.977
partner 6.24 µg/mL	0.748	0.718	0.687

N[C@@H]1CONC1=O [Cycloserine D] + COc1cccc2c1C(=O)c1c(O)c3c(c(O)c1C2=O)C[C@@](O)(C(=O)CO)C[C@@H]3O[C@H]1C[C@H](N)[C@H](O)[C@H](C)O1 [Doxorubicin]
fitness
Conditions	first compound 0.125 µg/mL	first compound 0.25 µg/mL	first compound 0.375 µg/mL	first compound 0.5 µg/mL	first compound 0.75 µg/mL	first compound 1.5 µg/mL
B. subtilis 168, partner 0.625 µg/mL	0.976	0.959	–	0.921	–	–
B. subtilis 168, partner 1.25 µg/mL	0.919	0.939	–	0.891	–	–
B. subtilis 168, partner 2.5 µg/mL	0.754	0.704	–	0.722	–	–
S. aureus DSM 20231, partner 0.625 µg/mL	–	–	0.942	–	0.898	0.905
S. aureus DSM 20231, partner 1.25 µg/mL	–	–	0.867	–	0.891	0.953
S. aureus DSM 20231, partner 2.5 µg/mL	–	–	0.861	–	0.841	0.774
S. aureus Newman, partner 0.625 µg/mL	–	–	0.796	–	0.809	0.827
S. aureus Newman, partner 1.25 µg/mL	–	–	0.797	–	0.797	0.799
S. aureus Newman, partner 2.5 µg/mL	–	–	0.748	–	0.75	0.771

N[C@@H]1CONC1=O [Cycloserine D] + Cc1cc(NS(=O)(=O)c2ccc(N)cc2)no1 [Sulfamethoxazol]
fitness, one replicate
Conditions	first compound 0.125 µg/mL	first compound 0.25 µg/mL	first compound 0.375 µg/mL	first compound 0.5 µg/mL	first compound 0.75 µg/mL	first compound 1.5 µg/mL
B. subtilis 168, partner 0.5 µg/mL	0.939	0.993	–	0.977	–	–
S. aureus Newman, partner 8 µg/mL	–	–	≥ 1	–	≥ 1	≥ 1

fitness
Conditions	first compound 0.125 µg/mL	first compound 0.25 µg/mL	first compound 0.375 µg/mL	first compound 0.5 µg/mL	first compound 0.75 µg/mL	first compound 1.5 µg/mL
B. subtilis 168, partner 1 µg/mL	0.941	0.933	–	0.868	–	–
B. subtilis 168, partner 2 µg/mL	0.869	0.896	–	0.929	–	–
B. subtilis 168, partner 4 µg/mL	0.951	0.931	–	≥ 1	–	–
S. aureus DSM 20231, partner 1 µg/mL	–	–	≥ 1	–	≥ 1	0.93
S. aureus DSM 20231, partner 2 µg/mL	–	–	≥ 1	–	0.913	0.982
S. aureus DSM 20231, partner 4 µg/mL	–	–	≥ 1	–	0.929	≥ 1
S. aureus Newman, partner 1 µg/mL	–	–	0.997	–	0.979	0.949
S. aureus Newman, partner 2 µg/mL	–	–	≥ 1	–	≥ 1	≥ 1
S. aureus Newman, partner 4 µg/mL	–	–	≥ 1	–	≥ 1	≥ 1

N[C@@H]1CONC1=O [Cycloserine D] + C[n+]1ccc(-c2cc[n+](C)cc2)cc1 [Paraquat]
fitness
Conditions	first compound 0.125 µg/mL	first compound 0.25 µg/mL	first compound 0.375 µg/mL	first compound 0.5 µg/mL	first compound 0.75 µg/mL	first compound 1.5 µg/mL
B. subtilis 168, partner 1.25 µg/mL	0.939	0.919	–	0.958	–	–
B. subtilis 168, partner 2.5 µg/mL	0.911	0.905	–	0.899	–	–
B. subtilis 168, partner 5 µg/mL	0.842	0.787	–	0.746	–	–
S. aureus DSM 20231, partner 1.25 µg/mL	–	–	0.976	–	0.978	0.964
S. aureus DSM 20231, partner 2.5 µg/mL	–	–	≥ 1	–	0.977	≥ 1
S. aureus DSM 20231, partner 5 µg/mL	–	–	0.977	–	0.983	0.965
S. aureus Newman, partner 1.25 µg/mL	–	–	0.962	–	0.871	0.899
S. aureus Newman, partner 2.5 µg/mL	–	–	0.979	–	0.966	0.984
S. aureus Newman, partner 5 µg/mL	–	–	0.938	–	0.969	0.93

N[C@@H]1CONC1=O [Cycloserine D] + CC1=C\[C@@H](O)CC(=O)Cc2nc(co2)C(=O)N2CCC=C2C(=O)O[C@H](C(C)C)[C@H](C)/C=C/C(=O)NC\C=C\1 [Virginiamycin M1]
fitness
Conditions	first compound 0.125 µg/mL	first compound 0.25 µg/mL	first compound 0.375 µg/mL	first compound 0.5 µg/mL	first compound 0.75 µg/mL	first compound 1.5 µg/mL
B. subtilis 168, partner 0.0625 µg/mL	0.967	0.971	–	0.852	–	–
B. subtilis 168, partner 0.125 µg/mL	0.922	0.909	–	0.916	–	–
B. subtilis 168, partner 0.25 µg/mL	0.921	0.906	–	≥ 1	–	–
S. aureus DSM 20231, partner 0.0625 µg/mL	–	–	≥ 1	–	≥ 1	0.955
S. aureus DSM 20231, partner 0.125 µg/mL	–	–	≥ 1	–	≥ 1	≥ 1
S. aureus DSM 20231, partner 0.25 µg/mL	–	–	0.999	–	1	≥ 1
S. aureus Newman, partner 0.0625 µg/mL	–	–	≥ 1	–	0.969	0.985
S. aureus Newman, partner 0.125 µg/mL	–	–	≥ 1	–	0.98	0.991
S. aureus Newman, partner 0.25 µg/mL	–	–	≥ 1	–	1	0.981

fitness, one replicate
Conditions	first compound 0.375 µg/mL	first compound 0.75 µg/mL	first compound 1.5 µg/mL
S. aureus DSM 20231, partner 0.5 µg/mL	0.996	0.99	0.999
S. aureus DSM 20231, partner 1 µg/mL	0.958	0.984	0.908
S. aureus Newman, partner 0.5 µg/mL	0.914	0.934	≥ 1
S. aureus Newman, partner 1 µg/mL	≥ 1	0.967	0.882
S. aureus Newman, partner 2 µg/mL	0.888	0.931	0.769

From the supplement of paper PMC10627819
